Measurements as given in paper PMC10831120, “Nitric oxide synthase-guided genome mining identifies a cytochrome P450 enzyme for olefin nitration in bacterial specialized metabolism” (Synthetic and Systems Biotechnology, 2024).
pKd: −log10 of the molar value.

Target: T1, Laj2 (cytochrome P450)
T1 construct: His6-tagged Laj2 (405 aa), expressed in E. coli
Experiment: UV-vis difference spectral titration (type I binding spectra), one-site fit; nitration turnover also shown by LC-MS
Design: species or system Streptomyces qinglanensis

C/C=C(C)/C=C/C=C\C=C(\C)C(O)C(C)(C)C(=O)NC/C=C/C=C/C(O)C(C)CC(OC)C1(O)C(C)C(=O)N(C)C12COC2=O (stereo not shown) [compound 4, denitrolajollamycin]
pKd: ~4.22
